PubChem BioAssay (NCI)
Where “and” joins values, the source holds several entries; their conditions need not be identical. Equal entries are not always repeated.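 Grown in 96-well plates, cells were treated for 48 hours with each compound at five concentrations. Insufficient inhibition: endpoint recorded as highest concentration tested. The concentration for 50% growth inhibition is given as GI50. TGI denotes the concentration required for complete inhibition of growth.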

Columns and labels:
Test in all cases: inhibition of tumour cell growth, NCI panel, 48 h
[1] = tested on: NCI-H460 lung
[2] = tested on: RPMI-8226 leukemia
[3] = tested on: UO-31 renal
[4] = tested on: OVCAR-8 ovarian
[5] = tested on: SNB-75 CNS
[6] = tested on: U251 CNS
[7] = tested on: SNB-19 CNS
[8] = tested on: K-562 leukemia
[9] = tested on: HOP-92 NSCLC
[10] = tested on: DU-145 prostate

In the case of `Cc1cn(C2CC(CCCO)C(CO)O2)c(=O)[nH]c1=O` (centres undefined), the TGI [1] is reported as over 100 µM, the TGI [2] is reported as over 100 µM and the TGI [3] is reported as over 100 µM. The TGI [4] was over 100 µM, the GI50 [5] was > 100 µM and 30.5 µM and the TGI [5] was over 100 µM. For the same molecule, the TGI [6] was over 100 µM, the TGI [7] was over 100 µM and the TGI [8] was over 100 µM.
`N#C/C(=C\c1cccc(O)c1O)C(N)=O` gave a TGI [1] of over 100 µM, a TGI [2] of 65.6 µM and a TGI [3] of 85.3 µM. For the same molecule, the TGI [9] was over 100 µM, the TGI [4] was over 100 µM and the TGI [5] was 47.2 µM. It also gave a TGI [6] of over 100 µM, a TGI [7] of over 100 µM and a TGI [8] of over 100 µM.
`COC(=O)NNC(c1ccc(Cl)cc1)c1ccc(Cl)cc1` showed a TGI [1] of 35.2 µM, a TGI [10] of over 100 µM and a TGI [2] of 52 µM. The TGI [3] was 25.2 µM, the TGI [4] was 42.4 µM and the TGI [5] was 69 µM. The TGI [6] was 40.3 µM, the TGI [7] was 41.1 µM and the TGI [8] was 53 µM.
For `O=C(O)CC[P+](c1ccccc1)(c1ccccc1)c1ccccc1`, the TGI [10] was over 100 µM, the TGI [2] was 19.9 µM and the TGI [3] was over 100 µM. For the same molecule, the TGI [4] was over 100 µM, the TGI [5] was over 100 µM and the TGI [6] was over 100 µM. The TGI [7] was over 100 µM and the TGI [8] was over 100 µM.
For `N/C(=N\NS(=O)(=O)c1ccccc1)Oc1ccc(Br)cc1Br`, the TGI [1] was over 100 µM, the TGI [2] was over 100 µM and the TGI [3] was over 100 µM. For the same molecule, the TGI [9] was over 100 µM, the TGI [4] was over 100 µM and the TGI [5] was over 100 µM. It also gave a TGI [6] of over 100 µM, a TGI [7] of over 100 µM and a TGI [8] of over 100 µM.
Work on `Cc1cccc2c1c1ccc3c(c1n2C)C(=O)C=CC3=O` yielded a TGI [1] of 37.8 µM, a TGI [2] of 13.2 µM and a TGI [3] of 9.83 µM. For the same molecule, the TGI [9] was 4.34 µM, the TGI [4] was 32.1 µM and the TGI [5] was 42.8 µM. It also gave a TGI [6] of 25.8 µM, a TGI [7] of 32.3 µM and a TGI [8] of 6.03 µM.
In the case of `O=c1c2ccccc2nc(-c2ccccc2)n1NC(=S)Nc1ccc(Cl)cc1`, the TGI [1] is reported as over 100 µM, the TGI [2] is reported as over 100 µM and the TGI [3] is reported as over 100 µM. For the same molecule, the TGI [9] was over 100 µM, the TGI [4] was over 100 µM and the TGI [5] was over 100 µM. It also gave a TGI [6] of over 100 µM and a TGI [8] of over 100 µM.
`C#CCNC(=O)ON1C(=O)CCC1=O` was tested, and the TGI [1] was over 100 µM, the TGI [2] was over 100 µM and the TGI [3] was over 100 µM. For the same molecule, the TGI [4] was over 100 µM, the TGI [5] was over 100 µM and the TGI [6] was over 100 µM. For the same molecule, the TGI [7] was over 100 µM and the TGI [8] was over 100 µM.
Molecule `Cc1cc(NC(=O)C2C3C=CC(O3)C2C(=O)O)no1` (centres undefined) has a TGI [1] of over 100 µM, a TGI [2] of 37.4 µM and a TGI [3] of over 100 µM. It also gave a TGI [9] of over 100 µM, a TGI [4] of 32.6 µM and a TGI [5] of over 100 µM. For the same molecule, the TGI [6] was 53.8 µM, the TGI [7] was over 100 µM and the TGI [8] was 42.5 µM.
Molecule `Cc1cccc2nc3c(=O)[nH]c(=O)nc-3n(C)c12` has a TGI [1] of over 100 µM, a TGI [10] of over 100 µM and a TGI [2] of 95.4 µM. For the same molecule, the TGI [4] was over 100 µM, the TGI [5] was over 100 µM and the TGI [6] was over 100 µM. It also gave a TGI [7] of over 100 µM and a TGI [8] of over 100 µM.
Molecule `CNc1ccc2ncccc2c1[N+](=O)[O-]` has a TGI [1] of over 100 µM, a TGI [2] of over 100 µM and a TGI [3] of over 100 µM. The TGI [9] was over 100 µM, the TGI [4] was over 100 µM and the TGI [5] was over 100 µM. It also gave a TGI [7] of over 100 µM and a TGI [8] of over 100 µM.
Work on `CCSCN(C)c1nc(N(C)C)nc(N(C)C)n1` yielded a TGI [1] of over 100 µM, a TGI [2] of over 100 µM and a TGI [3] of over 100 µM. For the same molecule, the TGI [9] was over 100 µM, the TGI [4] was over 100 µM and the TGI [5] was over 100 µM. For the same molecule, the TGI [6] was over 100 µM, the TGI [7] was over 100 µM and the TGI [8] was over 100 µM.
Molecule `C=C[C@@]1(O)CCCC[C@@H]1CC(Sc1ccccc1)Sc1ccccc1` has a TGI [1] of 26.2 µM, a TGI [10] of 32.2 µM and a TGI [2] of 90.2 µM. It also gave a TGI [3] of 32.2 µM, a TGI [4] of 34.1 µM and a TGI [5] of 27.8 µM. For the same molecule, the TGI [6] was 31.9 µM, the TGI [7] was 35.6 µM and the TGI [8] was over 100 µM.
For `COc1cccc(/C(Cl)=C(\C=O)c2cccc(OC)c2)c1`, the TGI [1] was 26.4 µM, the TGI [2] was 45.1 µM and the TGI [3] was 68.1 µM. It also gave a TGI [9] of 36 µM, a TGI [4] of 30.5 µM and a TGI [5] of 40.5 µM. For the same molecule, the TGI [6] was 22.2 µM, the TGI [7] was 38.2 µM and the TGI [8] was 46 µM.
Molecule `CCOC(=O)NNC(=O)NCc1ccccc1CNC(=O)NNC(=O)OCC` has a TGI [1] of over 100 µM, a TGI [10] of over 100 µM and a TGI [2] of over 100 µM. The TGI [3] was over 100 µM, the TGI [4] was over 100 µM and the TGI [5] was over 100 µM. It also gave a TGI [6] of over 100 µM, a TGI [7] of over 100 µM and a TGI [8] of over 100 µM.
Molecule `CN(C)/C=N\c1ccnc(=O)[nH]1` has a TGI [1] of over 100 µM, a TGI [2] of over 100 µM and a TGI [3] of over 100 µM. For the same molecule, the TGI [9] was over 100 µM, the TGI [4] was over 100 µM and the TGI [5] was over 100 µM. The TGI [6] was over 100 µM and the TGI [8] was over 100 µM.
`O=C1C[C@@H]2[C@@H](CCC23CC3)N1` showed a TGI [1] of over 100 µM, a TGI [2] of over 100 µM and a TGI [3] of over 100 µM. It also gave a TGI [4] of over 100 µM, a TGI [5] of over 100 µM and a TGI [6] of over 100 µM. The TGI [7] was over 100 µM and the TGI [8] was over 100 µM.
`CN1CN(c2ccccc2)C2(CCN(CCCCCCF)CC2)C1=O` gave a TGI [10] of over 100 µM, a TGI [2] of over 100 µM and a TGI [3] of 94.2 µM. For the same molecule, the TGI [4] was over 100 µM, the TGI [5] was over 100 µM and the TGI [6] was over 100 µM. The TGI [7] was over 100 µM and the TGI [8] was over 100 µM.
